# The source made the active and inactive calls.
# Columns and labels:
# [1] = target: T1, DNA repair and recombination protein RAD54-like (Homo sapiens, UniProt Q92698); assay: inhibitors of human RAD54 branch migration, confirmation, biochemical, fluorescence, cherry-picked samples, dose series (AID 651657); format: functional
# T1 sequence (Q92698 whole entry): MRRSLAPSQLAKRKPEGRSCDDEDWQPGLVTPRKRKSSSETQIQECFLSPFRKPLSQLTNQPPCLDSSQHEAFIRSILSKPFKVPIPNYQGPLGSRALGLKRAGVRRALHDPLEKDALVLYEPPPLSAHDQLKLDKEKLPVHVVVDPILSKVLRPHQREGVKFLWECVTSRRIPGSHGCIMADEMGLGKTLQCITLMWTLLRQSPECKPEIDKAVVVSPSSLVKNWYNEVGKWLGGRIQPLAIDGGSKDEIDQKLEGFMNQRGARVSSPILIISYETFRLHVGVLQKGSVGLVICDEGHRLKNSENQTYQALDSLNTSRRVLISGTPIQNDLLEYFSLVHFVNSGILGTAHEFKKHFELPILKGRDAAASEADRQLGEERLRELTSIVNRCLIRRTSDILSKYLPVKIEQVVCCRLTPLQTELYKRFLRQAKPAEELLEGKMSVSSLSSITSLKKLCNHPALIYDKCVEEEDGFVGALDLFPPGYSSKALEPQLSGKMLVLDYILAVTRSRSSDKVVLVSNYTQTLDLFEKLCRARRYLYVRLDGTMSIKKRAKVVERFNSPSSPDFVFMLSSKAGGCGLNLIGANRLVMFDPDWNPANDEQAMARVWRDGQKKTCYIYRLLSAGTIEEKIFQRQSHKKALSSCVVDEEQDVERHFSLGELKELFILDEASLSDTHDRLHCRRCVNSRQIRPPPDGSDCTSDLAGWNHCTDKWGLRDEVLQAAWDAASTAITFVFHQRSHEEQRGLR
# [2] = target: Dual specificity protein phosphatase 3 (Homo sapiens, UniProt P51452); assay: VHR phosphatase inhibition, dose response, selectivity assay for STEP inhibitor project, biochemical (AID 602374); format: functional; conditions: read-out: IC50_Mean
# Chain of Dual specificity protein phosphatase 3 (P51452 whole entry): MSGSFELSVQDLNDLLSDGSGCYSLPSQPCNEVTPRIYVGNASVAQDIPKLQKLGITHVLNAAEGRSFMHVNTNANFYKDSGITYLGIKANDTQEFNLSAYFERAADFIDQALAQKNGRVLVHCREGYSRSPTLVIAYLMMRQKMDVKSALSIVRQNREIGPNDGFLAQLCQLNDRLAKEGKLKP
# [3] = target: T2, Tyrosine-protein phosphatase non-receptor type 5 (Homo sapiens, UniProt P54829); assay: STEP phosphatase inhibitors, confirmation, biochemical, fluorescence intensity, uHTS hits (AID 602372); format: functional; conditions: read-out: IC50_Mean
# T2 sequence (P54829 whole entry): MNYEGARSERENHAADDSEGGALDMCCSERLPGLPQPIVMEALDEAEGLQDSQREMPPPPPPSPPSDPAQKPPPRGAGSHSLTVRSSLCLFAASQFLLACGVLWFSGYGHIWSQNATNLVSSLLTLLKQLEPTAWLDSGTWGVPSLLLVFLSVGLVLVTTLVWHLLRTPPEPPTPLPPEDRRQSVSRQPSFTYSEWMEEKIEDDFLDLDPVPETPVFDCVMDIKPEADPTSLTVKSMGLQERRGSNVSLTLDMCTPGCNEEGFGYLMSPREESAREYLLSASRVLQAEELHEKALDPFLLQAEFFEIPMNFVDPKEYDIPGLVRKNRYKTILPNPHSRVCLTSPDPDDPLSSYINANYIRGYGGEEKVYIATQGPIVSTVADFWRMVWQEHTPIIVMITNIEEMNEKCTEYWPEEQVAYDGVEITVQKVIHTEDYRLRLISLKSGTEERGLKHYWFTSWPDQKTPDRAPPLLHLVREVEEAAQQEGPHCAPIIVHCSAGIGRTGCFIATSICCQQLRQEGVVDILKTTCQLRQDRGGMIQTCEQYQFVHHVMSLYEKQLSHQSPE
# [4] = target: T3, Tyrosine-protein phosphatase non-receptor type 11 (Homo sapiens, UniProt Q06124); assay: SHP2 phosphatase inhibition, dose response, selectivity assay for STEP inhibitor project, biochemical (AID 602367); format: functional; conditions: read-out: IC50_Mean
# T3 sequence (Q06124 whole entry): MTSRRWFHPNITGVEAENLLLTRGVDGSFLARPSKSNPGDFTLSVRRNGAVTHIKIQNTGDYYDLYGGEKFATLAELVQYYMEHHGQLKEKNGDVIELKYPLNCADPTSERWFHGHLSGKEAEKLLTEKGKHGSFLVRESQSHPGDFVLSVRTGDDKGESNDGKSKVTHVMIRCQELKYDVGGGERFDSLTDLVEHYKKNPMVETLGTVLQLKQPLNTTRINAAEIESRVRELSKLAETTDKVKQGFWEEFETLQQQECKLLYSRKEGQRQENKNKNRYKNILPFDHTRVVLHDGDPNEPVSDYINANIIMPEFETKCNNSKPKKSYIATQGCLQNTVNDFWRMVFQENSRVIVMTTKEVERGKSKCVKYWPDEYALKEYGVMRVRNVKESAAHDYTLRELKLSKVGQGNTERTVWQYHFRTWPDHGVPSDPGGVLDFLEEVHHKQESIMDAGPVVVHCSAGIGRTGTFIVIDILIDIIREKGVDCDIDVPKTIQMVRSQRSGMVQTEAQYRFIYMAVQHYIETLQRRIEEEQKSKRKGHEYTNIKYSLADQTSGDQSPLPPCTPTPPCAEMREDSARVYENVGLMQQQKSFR
# [5] = intracellular Trypanosoma cruzi inhibitors in host cells – cell-based, plate reader, cherry-pick samples, set 3, dose response (AID 651818); format: functional;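 note: compounds incubated with infected cells for about four days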
# [6] = target: T4, Histone-lysine N-methyltransferase NSD2 (Homo sapiens, UniProt O96028); format: biochemical
# T4 sequence (O96028 whole entry): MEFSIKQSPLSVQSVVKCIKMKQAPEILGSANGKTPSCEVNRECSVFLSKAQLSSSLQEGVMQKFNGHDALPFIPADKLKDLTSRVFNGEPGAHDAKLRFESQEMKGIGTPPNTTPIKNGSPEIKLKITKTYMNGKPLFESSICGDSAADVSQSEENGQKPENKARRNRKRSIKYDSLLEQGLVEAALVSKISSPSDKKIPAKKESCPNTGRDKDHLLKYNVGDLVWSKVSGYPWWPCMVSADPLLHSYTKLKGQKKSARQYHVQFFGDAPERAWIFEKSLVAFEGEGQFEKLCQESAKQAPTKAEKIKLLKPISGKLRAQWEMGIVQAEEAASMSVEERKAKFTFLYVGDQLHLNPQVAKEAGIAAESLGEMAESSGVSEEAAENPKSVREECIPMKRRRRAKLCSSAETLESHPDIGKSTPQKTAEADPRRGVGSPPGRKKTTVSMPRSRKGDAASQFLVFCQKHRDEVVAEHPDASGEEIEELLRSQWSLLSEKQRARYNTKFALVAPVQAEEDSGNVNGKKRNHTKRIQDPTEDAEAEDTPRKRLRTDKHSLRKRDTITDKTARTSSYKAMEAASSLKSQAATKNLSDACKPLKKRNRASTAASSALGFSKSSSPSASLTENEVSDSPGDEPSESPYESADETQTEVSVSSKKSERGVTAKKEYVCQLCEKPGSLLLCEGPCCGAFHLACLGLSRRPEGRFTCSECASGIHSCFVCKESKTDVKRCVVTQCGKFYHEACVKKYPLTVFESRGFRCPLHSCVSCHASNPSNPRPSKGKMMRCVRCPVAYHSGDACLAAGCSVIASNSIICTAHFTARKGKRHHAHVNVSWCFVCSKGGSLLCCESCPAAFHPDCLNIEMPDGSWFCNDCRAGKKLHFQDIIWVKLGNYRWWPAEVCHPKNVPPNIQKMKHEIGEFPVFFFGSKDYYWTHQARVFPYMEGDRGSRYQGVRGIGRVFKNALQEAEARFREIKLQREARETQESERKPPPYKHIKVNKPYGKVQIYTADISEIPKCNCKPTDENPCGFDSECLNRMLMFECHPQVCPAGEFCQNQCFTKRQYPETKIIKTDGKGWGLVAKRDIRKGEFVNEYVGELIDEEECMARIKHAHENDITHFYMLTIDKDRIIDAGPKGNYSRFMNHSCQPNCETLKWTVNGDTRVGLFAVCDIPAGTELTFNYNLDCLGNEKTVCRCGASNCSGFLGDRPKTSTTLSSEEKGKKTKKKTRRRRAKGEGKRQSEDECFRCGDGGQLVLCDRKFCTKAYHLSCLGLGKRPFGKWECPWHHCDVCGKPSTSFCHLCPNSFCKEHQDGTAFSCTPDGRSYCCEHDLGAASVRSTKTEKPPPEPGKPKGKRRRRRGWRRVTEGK
# [7] = NIH-3T3 fibroblast cytotoxicity, dose response, cytotoxicity control, cell-based, fluorescence, Alamar Blue, secondary assay (AID 2327); format: functional;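 note: NIH-3T3 mouse fibroblasts cultured with fluconazole at 8 µg/mL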
# [8] = target: T5, Corticotropin-releasing factor receptor 2/Corticotropin-releasing factor-binding protein (Homo sapiens, UniProt P24387+Q13324); assay: Dose Response confirmation of uHTS hits for small molecule antagonists of the CRF-binding protein and CRF-R2 receptor complex.; format: functional; conditions: read-out: IC50_Mean
# T5 sequence (Q13324 whole entry): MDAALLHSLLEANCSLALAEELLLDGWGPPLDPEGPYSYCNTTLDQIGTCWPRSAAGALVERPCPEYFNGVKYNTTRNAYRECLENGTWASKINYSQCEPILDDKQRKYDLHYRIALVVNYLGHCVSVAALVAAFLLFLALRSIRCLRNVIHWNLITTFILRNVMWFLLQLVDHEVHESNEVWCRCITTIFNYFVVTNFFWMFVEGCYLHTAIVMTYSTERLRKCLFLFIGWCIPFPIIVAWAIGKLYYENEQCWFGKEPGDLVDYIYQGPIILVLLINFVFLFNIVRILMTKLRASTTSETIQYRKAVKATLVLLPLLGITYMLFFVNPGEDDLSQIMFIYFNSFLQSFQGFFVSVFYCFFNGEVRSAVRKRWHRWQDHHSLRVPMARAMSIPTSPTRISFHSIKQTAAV
# T5 sequence (P24387 whole entry): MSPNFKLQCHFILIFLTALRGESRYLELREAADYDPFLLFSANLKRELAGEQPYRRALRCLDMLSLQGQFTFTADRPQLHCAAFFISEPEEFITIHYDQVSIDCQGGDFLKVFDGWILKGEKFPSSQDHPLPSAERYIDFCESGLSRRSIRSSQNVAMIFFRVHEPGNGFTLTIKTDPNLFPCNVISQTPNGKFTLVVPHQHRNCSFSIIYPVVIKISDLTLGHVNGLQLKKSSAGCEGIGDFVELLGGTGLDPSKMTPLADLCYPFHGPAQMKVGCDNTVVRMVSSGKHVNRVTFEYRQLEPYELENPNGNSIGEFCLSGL
# [9] = C. albicans growth with fluconazole, confirmation, fluorescence, retest (AID 2467); format: functional, cell-based
# [10] = CRF-BP/CRF-R2 complex antagonists, dose response, cell-based, uHTS hits, 384-well (AID 651639); format: functional, Homo sapiens; conditions: read-out: IC50_Mean
# [11] = target: T5, Corticotropin-releasing factor receptor 2/Corticotropin-releasing factor-binding protein; assay: activators of CRF receptor 2 with binding protein – uHTS hits, confirmation (AID 602473); format: functional; conditions: read-out: EC50_Mean
# [12] = target: Eukaryotic translation initiation factor 4E (Mus musculus, UniProt P63073); assay: eIF4E–eIF4G protein interaction inhibitors, dose response, biochemical, TR-FRET (AID 855); format: functional;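 note: potency for disrupting eIF4E binding to eIF4GI seen as loss of FRET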
# Chain of Eukaryotic translation initiation factor 4E (P63073 whole entry): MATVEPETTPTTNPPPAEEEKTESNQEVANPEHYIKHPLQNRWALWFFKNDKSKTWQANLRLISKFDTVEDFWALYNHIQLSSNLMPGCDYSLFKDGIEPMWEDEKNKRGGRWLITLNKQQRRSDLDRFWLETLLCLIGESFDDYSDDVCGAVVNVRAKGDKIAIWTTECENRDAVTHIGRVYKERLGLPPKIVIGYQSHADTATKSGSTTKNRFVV
# [13] = Luminescence Cell-Based Dose Retest to Confirm Inhibitors of Cancer Stem Cells. [Related pubchem assays (depositor defined):AID2717, AID2721]; format: functional; conditions: Homo sapiens
# [14] = target: Photoreceptor-specific nuclear receptor (Homo sapiens, UniProt Q9Y5X4); format: functional, cell-based;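 note: CHO-S cells with Gal4-NCOR and VP16-NR2E3 two-hybrid luciferase reporter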
# Chain of Photoreceptor-specific nuclear receptor (Q9Y5X4 whole entry, the tested form may be a part): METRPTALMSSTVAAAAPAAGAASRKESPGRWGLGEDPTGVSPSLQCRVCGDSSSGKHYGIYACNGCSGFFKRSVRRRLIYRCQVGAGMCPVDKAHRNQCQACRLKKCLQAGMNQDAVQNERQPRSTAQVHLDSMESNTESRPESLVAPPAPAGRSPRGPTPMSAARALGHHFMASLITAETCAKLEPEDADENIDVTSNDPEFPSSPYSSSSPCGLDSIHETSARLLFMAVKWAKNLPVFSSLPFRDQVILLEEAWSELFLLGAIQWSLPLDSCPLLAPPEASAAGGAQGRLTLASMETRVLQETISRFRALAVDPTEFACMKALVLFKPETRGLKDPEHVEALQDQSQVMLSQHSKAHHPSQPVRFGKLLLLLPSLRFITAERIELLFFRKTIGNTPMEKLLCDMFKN
# [15] = cytotoxicity in HMLE control line with eGFP shRNA, dose response, counter-screen for HMLE_sh_ECad selective toxicity project, cell-based, HMLE_sh_eGFP, luminescence (AID 463074); format: functional, Homo sapiens;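 note: HMLE human mammary epithelial cells expressing control shRNA against eGFP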
# Fatty acid synthase [16] = target: T6, Fatty acid synthase (Homo sapiens, UniProt P49327); assay: FAS thioesterase domain inhibitors, dose response, biochemical, kinetic fluorescence intensity (AID 624326); format: functional;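 note: rate of fluorescence rise from hydrolysis of a fluorogenic O-methyl fluorescein ester substrate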
# T6 sequence (P49327 whole entry, the tested form may be a part): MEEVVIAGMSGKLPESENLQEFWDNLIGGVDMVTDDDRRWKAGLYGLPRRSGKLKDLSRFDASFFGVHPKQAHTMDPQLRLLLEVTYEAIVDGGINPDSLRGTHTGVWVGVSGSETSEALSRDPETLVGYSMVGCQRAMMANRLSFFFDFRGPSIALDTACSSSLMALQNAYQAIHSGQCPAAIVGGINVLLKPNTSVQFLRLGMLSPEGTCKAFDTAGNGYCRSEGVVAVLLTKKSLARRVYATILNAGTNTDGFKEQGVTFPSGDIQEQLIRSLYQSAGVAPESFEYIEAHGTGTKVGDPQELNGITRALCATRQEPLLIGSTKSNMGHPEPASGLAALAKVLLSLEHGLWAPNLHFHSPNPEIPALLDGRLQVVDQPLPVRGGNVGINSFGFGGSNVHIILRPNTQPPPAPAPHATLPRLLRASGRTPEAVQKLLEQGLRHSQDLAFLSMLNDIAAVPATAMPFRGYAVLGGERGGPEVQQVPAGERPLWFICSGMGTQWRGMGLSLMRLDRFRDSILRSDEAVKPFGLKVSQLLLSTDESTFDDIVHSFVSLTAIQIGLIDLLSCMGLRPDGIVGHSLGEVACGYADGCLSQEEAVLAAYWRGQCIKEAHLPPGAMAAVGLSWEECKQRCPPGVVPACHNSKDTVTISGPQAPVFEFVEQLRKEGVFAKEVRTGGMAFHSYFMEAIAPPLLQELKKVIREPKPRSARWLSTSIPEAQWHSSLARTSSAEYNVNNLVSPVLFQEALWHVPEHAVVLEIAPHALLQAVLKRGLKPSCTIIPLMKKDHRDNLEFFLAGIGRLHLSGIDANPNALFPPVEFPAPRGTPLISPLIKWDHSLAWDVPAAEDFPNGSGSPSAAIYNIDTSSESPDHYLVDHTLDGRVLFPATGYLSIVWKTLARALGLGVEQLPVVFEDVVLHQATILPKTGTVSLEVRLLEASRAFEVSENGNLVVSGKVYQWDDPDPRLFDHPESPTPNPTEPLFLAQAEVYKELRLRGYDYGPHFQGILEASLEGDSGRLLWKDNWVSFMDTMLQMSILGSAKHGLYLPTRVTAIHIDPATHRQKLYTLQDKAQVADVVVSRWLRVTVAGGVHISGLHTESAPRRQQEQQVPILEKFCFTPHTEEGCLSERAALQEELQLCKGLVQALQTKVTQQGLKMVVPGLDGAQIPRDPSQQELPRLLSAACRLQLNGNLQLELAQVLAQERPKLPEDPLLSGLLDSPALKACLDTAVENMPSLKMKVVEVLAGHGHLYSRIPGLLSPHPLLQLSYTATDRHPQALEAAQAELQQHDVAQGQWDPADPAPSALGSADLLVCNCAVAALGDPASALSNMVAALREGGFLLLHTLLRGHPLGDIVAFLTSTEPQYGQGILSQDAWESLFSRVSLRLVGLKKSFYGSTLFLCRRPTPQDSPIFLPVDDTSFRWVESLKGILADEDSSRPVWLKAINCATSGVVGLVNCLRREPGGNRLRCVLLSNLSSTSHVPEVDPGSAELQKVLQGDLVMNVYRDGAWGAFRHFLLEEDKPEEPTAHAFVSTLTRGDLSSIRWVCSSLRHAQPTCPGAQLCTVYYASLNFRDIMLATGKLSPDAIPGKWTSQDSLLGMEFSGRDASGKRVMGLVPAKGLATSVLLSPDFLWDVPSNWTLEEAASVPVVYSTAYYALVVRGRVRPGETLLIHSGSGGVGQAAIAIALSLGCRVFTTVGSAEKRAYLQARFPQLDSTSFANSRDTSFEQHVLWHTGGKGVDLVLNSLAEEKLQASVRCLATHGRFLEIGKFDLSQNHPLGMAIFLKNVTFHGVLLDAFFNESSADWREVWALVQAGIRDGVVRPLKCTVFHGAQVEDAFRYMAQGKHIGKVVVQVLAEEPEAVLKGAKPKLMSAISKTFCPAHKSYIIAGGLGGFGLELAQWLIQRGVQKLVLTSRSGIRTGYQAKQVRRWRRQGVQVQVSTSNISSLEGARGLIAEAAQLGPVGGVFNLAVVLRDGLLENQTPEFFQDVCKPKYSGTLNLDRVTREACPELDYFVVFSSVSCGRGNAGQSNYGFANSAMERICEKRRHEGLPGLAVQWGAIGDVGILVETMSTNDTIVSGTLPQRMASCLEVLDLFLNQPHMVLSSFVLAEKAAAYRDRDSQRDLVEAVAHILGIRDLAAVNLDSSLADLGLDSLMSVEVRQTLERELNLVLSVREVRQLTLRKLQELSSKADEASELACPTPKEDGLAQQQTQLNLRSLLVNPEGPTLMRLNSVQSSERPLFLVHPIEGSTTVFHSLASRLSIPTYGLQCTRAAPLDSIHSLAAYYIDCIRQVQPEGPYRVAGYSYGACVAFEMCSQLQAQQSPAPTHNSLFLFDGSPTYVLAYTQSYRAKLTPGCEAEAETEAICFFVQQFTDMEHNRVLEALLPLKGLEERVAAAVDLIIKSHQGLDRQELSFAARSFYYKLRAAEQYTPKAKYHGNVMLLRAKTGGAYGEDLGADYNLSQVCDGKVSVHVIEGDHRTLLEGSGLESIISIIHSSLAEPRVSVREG
# Fatty acid synthase [17] = target: T6, Fatty acid synthase; assay: FAS thioesterase domain inhibitors, dose response, biochemical, endpoint fluorescence intensity, uHTS hits (AID 624327); format: functional;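 note: fluorescence from hydrolysis of an O-methyl fluorescein acyl ester substrate by the enzyme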
compound,measurement,setting,value
CCCN(CCC)CCCNC(=O)c1cc2c(O)nc3ccccc3c2s1,AC50,[1],71.6 µM (active)
COc1ccc(NC(=S)NCCCN2CCCC2)cc1Cl,IC50,[2],1.12 µM (active)
same,IC50,[3],16.4 µM (active)
same,IC50,[4],1.89 µM (active)
C[C@@H]1CN([C@H](C)CO)C(=O)c2cccc(NS(=O)(=O)c3ccc(F)cc3)c2O[C@@H]1CN(C)C(=O)Nc1ccc(C(F)(F)F)cc1,AC50,[5],4.16 µM (active)
CC(C)NC1CCC(Nc2ccnc3cc(Cl)ccc23)CC1 (stereo unspecified),AC50,[6],> 20 µM (inactive)
same,AC50,[1],25.7 µM (active)
O=C1/C(=C\c2ccc(Br)cc2)SC(=S)N1NS(=O)(=O)c1ccccc1,EC50,[7],94.2 µM (active)
same,IC50,[8],5.5 µM (active)
same,EC50,[9],0.267 µM (active)
same,IC50,[10],17.6 µM (active)
same,EC50,[11],36.2 µM (active)
C[C@@H]1CN([C@@H](C)CO)C(=O)Cc2cc(NC(=O)Nc3ccc(C(F)(F)F)cc3)ccc2O[C@@H]1CN(C)Cc1ccc(C(=O)Nc2ccccc2N)cc1,AC50,[5],1.8 µM (active)
COCC(C)n1c(SCc2ccc(C(=O)OC)o2)nc2ccccc2c1=O (stereo unspecified),IC50,[12],> 64 µM (inactive)
same,IC50,[8],27.4 µM (active)
same,IC50,[10],> 20 µM (inactive)
same,EC50,[11],> 53 µM (inactive)
C[C@@H]1CN([C@H](C)CO)C(=O)c2cc(N(C)C)ccc2O[C@@H]1CN(C)Cc1ccc(C(=O)Nc2ccccc2N)cc1,AC50,[5],3.19 µM (active)
O=C(O)c1ccc(-n2ncc3c2/C(=C/c2cccc([N+](=O)[O-])c2)CC3)cc1,IC50,[8],4.34 µM (active)
same,IC50,[10],9.76 µM (active)
same,EC50,[11],> 53 µM (inactive)
O=C(COC(=O)c1cc([N+](=O)[O-])ccc1N1CCOCC1)Nc1ccc(Cl)cn1,AC50,[13],4.89 µM (active)
same,IC50,[14],1.91 µM (active)
same,AC50,[15],25.6 µM (active)
same,IC50,Fatty acid synthase [16],6.06 µM (active)
same,IC50,Fatty acid synthase [17],5.2 µM (active)

# Source: ChEMBL document CHEMBL1201862, “PubChem BioAssay data set” (2004)
